According to US20250205268A1, “TREATMENT OF VIRUSES WITH ANTIVIRAL NUCLEOSIDES” (priority 2021, published 2025):

What was measured:
[1] = test system: SARS-CoV-2
[2] = test system: SARS-CoV-2; settings: in vivo

In the case of `CC(C)C(=O)OC[C@H]1O[C@@H](n2ccc(NO)nc2=O)[C@H](O)[C@@H]1O` [Compound A, {(2R,3S,4R,5R)-3,4-dihydroxy-5-[4-(hydroxyimino)-2-oxo-3,4-dihydropyrimidin-1 (2H)-yl]oxolan-2-yl}methyl 2-methylpropanoate], the “mean SARS-CoV-2 viral RNA mutation rates per 10,000 nucleotides” value ([1]; 800 mg, end of therapy) is reported as 5.9 per 10,000 nucleotides, the Drug-related adverse events ([1]; human, in vivo) is reported as 11.0% and the “participants hospitalized or died through Day 29” value [2] is reported as about 3%. The “percentage of mutations in viral RNA post-treatment at Day 5” value [2] was “highest percentage of mutations”.
